# Results published in patent US12173018B2, “Penicillin-binding protein inhibitors” (priority 2018, dated 2024).
# Read-outs that look alike come from different tables or passages of the source.
# Experiments:
# [1] = test system: engineered strain of Escherichia coli harboring CTX-M15; experiment: microbe, parasite or virus in culture; format: cell-based; conditions: Escherichia coli, read-out: Microbiological Activity (MIC in mg/L), E. coli DH5α/pLBII-CTX-M15, engineered strain producing CTX-M15
# E. coli PBP2 = E. coli PBP2 (Escherichia coli (strain K12), UniProt P0AD65); experiment: E. coli PBP2 Bocillin-FL fluorescence polarization competition binding assay; conditions: fluorescence polarization competition binding with Bocillin-FL; read-out: E. coli K12 PBP2 Potency (EC50)
# Text: To determine the ability of boronic acid-based test PBP inhibitors to bind Penicillin Binding Proteins (PBPs), Bocillin-FL (fluorescently-labeled penicillin V; ThermoFisher Scientific) was used in a fluorescence polarization (FP) competition binding assay to assess inhibitor binding to PBP2, PBP3 or PBP4 from Escherichia coli. PBPs were cloned and purified as described previously (King, D. T, et al., ACS Infectious Diseases 2015, 1, 175-184). To establish assay conditions for competition binding, an enzyme titration/saturation binding experiment was initially performed. Bocillin-FL was prepared at 0.2 μM in a buffer comprised of 50 mM Hepes (pH 8.0), 300 mM NaCl and 5% (v/v) glycerol. Saturation binding was performed by mixing 40 μl of PBP solutions ranging in concentrations from 0-12 μM with 40 μl of the 0.2 μM Bocillin-FL solution, in individual wells of a black 384-well microplate. FP was measured immediately upon mixing (Excitation, 490 nm; Emission, 520 nm; g-factor, 0.96), using a Cytation3 (BioTek) microplate reader and measured continuously for up to 120 minutes. […] For all PBPs the FP signal approached saturation with 1.5 μM PBP (final concentration). […] Assays (80 μl final volume) were performed with PBPs at a final concentration of 1.5 μM, Bocillin-FL at 0.1 μM and beta-lactam concentrations that ranged from 0-1000 μM. […] Bocillin-FL was added and the FP immediately measured for 60 minutes (90 minutes for PBP2). The beta-lactam potency was reported as the concentration of beta-lactam required to reduce binding of Bocillin-FL by […] (EC50). […] Binding assays for boronic acid PBP inhibitors were performed in an identical fashion.
# E. coli PBP3 = E. coli PBP3 (Escherichia coli (strain K12), UniProt P0AD68); experiment: E. coli PBP3 Bocillin-FL fluorescence polarization competition binding assay
# Method in brief: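 Purified PBP (1.5 μM final) was combined with test compound (0–1000 μM) and Bocillin-FL (fluorescent penicillin V, 0.1 μM final) in 50 mM Hepes pH 8.0, 300 mM NaCl, 5% glycerol.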
# N. gonorrhoeae FA19 = experiment: Liquid broth MIC, N. gonorrhoeae FA19; format: cell-based; conditions: Neisseria gonorrhoeae; N. gonorrhoeae FA19, liquid broth; read-out: Minimum Inhibitory Concentration, N. gonorrhoeae FA19
# Method in brief: (§1)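 Visual MIC: lowest concentration well showing no bacterial growth after 40-42 h at 36° C in 5% CO2. Inoculum 5×10^5 CFU/mL from colonies swabbed into GC broth, set by OD600; compounds in 2-fold serial dilution.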
# N. gonorrhoeae WHO F = experiment: Liquid broth MIC, N. gonorrhoeae WHO F; format: cell-based; conditions: Neisseria gonorrhoeae; N. gonorrhoeae WHO F, liquid broth; read-out: Minimum Inhibitory Concentration, N. gonorrhoeae WHO F
# Method in brief: as §1
# N. gonorrhoeae FA1090 = experiment: Liquid broth MIC, N. gonorrhoeae FA1090; format: cell-based; conditions: Neisseria gonorrhoeae; N. gonorrhoeae FA1090, liquid broth; read-out: Minimum Inhibitory Concentration, N. gonorrhoeae FA1090
# Method in brief: as §1
# [2] = test system: N. gonorrhoeae ATCC 49226; experiment: Liquid broth MIC, N. gonorrhoeae ATCC 49226; format: cell-based; conditions: Neisseria gonorrhoeae, ATCC49226; N. gonorrhoeae ATCC 49226, liquid broth; read-out: Minimum Inhibitory Concentration, N. gonorrhoeae ATCC 49226
# Method in brief: as §1
# E. coli PBP1b = E. coli PBP1b (Escherichia coli (strain K12), UniProt P02919); experiment: Radioligand competition binding assay with 14C-labeled boronic acid probe, PBP1b
# E. coli ATCC 25922 = experiment: Broth microdilution MIC, E. coli ATCC 25922; format: cell-based; conditions: Escherichia coli, ATCC25922; E. coli ATCC 25922, broth microdilution; read-out: MIC E. coli 25922
# Method in brief: (§2)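 MIC = lowest concentration showing no visible growth after 16-20 h at 37° C. Cation-adjusted MH broth, 2-fold serial dilutions, starting inoculum 5×10^5 CFU/mL, per CLSI methods.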
# K. pneumoniae 848844 = experiment: microbe, parasite or virus in culture; format: cell-based, Klebsiella pneumoniae; conditions: Klebsiella pneumoniae; K. pneumoniae 848844 producing SHV-11 and KPC-2; read-out: MIC K. pneumoniae 848844
# Method in brief: as §2
# E. coli AG100A = experiment: microbe, parasite or virus in culture; format: cell-based; conditions: Escherichia coli, read-out: MIC E. coli AG100A
# Method in brief: as §2
# E. coli D22 = experiment: microbe, parasite or virus in culture; format: cell-based; conditions: Escherichia coli; hyper-permeable E. coli D22, broth microdilution; read-out: MIC E. coli D22
# Method in brief: as §2
# K. pneumoniae SI-117 = experiment: microbe, parasite or virus in culture; format: cell-based; conditions: Klebsiella pneumoniae, SI117, read-out: MIC K. pneumoniae SI-117
# Method in brief: as §2
# E. coli 901C = experiment: microbe, parasite or virus in culture; format: cell-based; conditions: Escherichia coli; hyper-permeable E. coli 901C, broth microdilution; read-out: MIC E. coli 901C
# Method in brief: as §2
# K. pneumoniae UMM = experiment: microbe, parasite or virus in culture; format: cell-based; conditions: Klebsiella pneumoniae; K. pneumoniae UMM producing SHV-5 and KPC-2; read-out: MIC K. pneumoniae UMM
# Method in brief: as §2
# E. coli AG100 = experiment: Broth microdilution MIC, E. coli AG100 (wild-type parent); format: cell-based; conditions: Escherichia coli; wild-type parent E. coli AG100, broth microdilution; read-out: MIC E. coli AG100
# Method in brief: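 Broth microdilution in cation-supplemented Mueller-Hinton broth, 2-fold serial compound dilutions, inoculum 5×10^5 CFU/mL from 3-5 h log culture.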
# E. coli PBP3, sequence (P0AD68 whole entry): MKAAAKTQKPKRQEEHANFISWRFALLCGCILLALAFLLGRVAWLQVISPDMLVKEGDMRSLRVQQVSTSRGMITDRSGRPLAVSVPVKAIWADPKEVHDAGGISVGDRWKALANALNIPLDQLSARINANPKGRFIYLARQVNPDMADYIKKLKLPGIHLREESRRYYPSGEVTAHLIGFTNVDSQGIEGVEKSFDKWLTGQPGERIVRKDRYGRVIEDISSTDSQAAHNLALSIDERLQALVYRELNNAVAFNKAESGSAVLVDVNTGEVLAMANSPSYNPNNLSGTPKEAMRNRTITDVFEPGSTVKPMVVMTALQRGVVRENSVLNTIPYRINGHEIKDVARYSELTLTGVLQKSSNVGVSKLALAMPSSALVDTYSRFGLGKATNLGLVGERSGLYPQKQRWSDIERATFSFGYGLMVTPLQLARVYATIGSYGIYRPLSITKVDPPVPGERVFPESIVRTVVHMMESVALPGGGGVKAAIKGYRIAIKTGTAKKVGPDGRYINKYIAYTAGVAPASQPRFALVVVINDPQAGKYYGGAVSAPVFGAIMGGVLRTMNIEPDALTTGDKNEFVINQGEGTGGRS
# E. coli PBP2, sequence (P0AD65 whole entry): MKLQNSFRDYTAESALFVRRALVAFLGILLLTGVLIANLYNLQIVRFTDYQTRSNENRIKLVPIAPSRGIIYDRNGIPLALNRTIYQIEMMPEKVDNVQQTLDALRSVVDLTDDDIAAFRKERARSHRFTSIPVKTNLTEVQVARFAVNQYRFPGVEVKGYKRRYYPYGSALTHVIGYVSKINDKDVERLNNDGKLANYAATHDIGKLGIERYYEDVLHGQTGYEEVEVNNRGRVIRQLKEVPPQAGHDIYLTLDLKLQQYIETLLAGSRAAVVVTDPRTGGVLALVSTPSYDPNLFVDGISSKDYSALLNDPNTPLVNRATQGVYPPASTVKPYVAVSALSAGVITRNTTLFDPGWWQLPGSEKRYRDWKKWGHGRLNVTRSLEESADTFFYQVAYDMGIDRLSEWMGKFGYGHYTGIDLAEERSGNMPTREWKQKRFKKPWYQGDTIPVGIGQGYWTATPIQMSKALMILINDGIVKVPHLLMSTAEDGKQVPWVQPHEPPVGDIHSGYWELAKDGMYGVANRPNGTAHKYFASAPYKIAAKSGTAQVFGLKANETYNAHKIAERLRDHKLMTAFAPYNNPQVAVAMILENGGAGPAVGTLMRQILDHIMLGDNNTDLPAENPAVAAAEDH
# E. coli PBP1b, sequence (P02919 whole entry): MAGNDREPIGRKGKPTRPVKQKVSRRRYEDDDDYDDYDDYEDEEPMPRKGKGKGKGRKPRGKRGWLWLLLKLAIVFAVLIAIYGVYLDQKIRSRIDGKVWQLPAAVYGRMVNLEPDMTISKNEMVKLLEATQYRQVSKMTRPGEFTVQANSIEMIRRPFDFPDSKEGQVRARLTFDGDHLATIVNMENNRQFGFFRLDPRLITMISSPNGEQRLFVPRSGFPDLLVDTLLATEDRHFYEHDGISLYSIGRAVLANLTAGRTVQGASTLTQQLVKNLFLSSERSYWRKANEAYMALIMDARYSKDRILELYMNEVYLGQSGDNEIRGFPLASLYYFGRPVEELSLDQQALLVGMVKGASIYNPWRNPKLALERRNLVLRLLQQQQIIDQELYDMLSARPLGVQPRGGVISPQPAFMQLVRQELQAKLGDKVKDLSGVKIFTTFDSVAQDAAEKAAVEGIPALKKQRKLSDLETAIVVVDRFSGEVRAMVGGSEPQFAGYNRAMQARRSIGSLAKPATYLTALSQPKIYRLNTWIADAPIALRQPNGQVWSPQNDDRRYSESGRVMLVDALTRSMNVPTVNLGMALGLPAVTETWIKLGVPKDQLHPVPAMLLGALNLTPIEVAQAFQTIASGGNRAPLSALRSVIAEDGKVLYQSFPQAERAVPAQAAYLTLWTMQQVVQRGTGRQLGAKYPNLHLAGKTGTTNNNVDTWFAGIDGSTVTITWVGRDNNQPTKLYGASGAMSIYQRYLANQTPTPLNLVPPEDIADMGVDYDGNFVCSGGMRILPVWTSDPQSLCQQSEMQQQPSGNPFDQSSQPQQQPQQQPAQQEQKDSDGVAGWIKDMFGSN
SMILES,MIC [1],EC50 (E. coli PBP2),EC50 (E. coli PBP3),MIC (N. gonorrhoeae FA19),MIC (N. gonorrhoeae WHO F),MIC (N. gonorrhoeae FA1090),MIC [2],EC50 (E. coli PBP1b),MIC (E. coli ATCC 25922),MIC (K. pneumoniae 848844),MIC (E. coli AG100A),MIC (E. coli D22),MIC (K. pneumoniae SI-117),MIC (E. coli 901C),MIC (K. pneumoniae UMM),MIC (E. coli AG100),"EC50 (E. coli PBP3; fluorescence polarization competition binding with Bocillin-FL, read-out: E. coli K12 PBP3 Potency)"
"CCN1CCN(C(=O)NC(C(=O)N[C@H]2Cc3cccc(C(=O)O)c3OB2O)c2ccc(OC)cn2)C(=O)C1=O (stereo partly drawn) [Example 81, (3R)-3-(2-(4-ethyl-2,3-dioxopiperazine-1-carboxamido)-2-(5-methoxypyridin-2-yl)acetamido)-2-hydroxy-3,4-dihydro-2H-benzo[e][1,2]oxaborinine-8-carboxylic acid]",128 to 256 mg/L,30 to 500 µM,30 to 500 µM,–,–,–,–,–,–,–,–,–,–,–,–,–,–
"CCCN1CCN(C(=O)NC(C(=O)N[C@H]2Cc3cccc(C(=O)O)c3OB2O)c2cnc(N)s2)C(=O)C1=O (stereo partly drawn) [Example 101, (3R)-3-(2-(2-aminothiazol-5-yl)-2-(2,3-dioxo-4-propylpiperazine-1-carboxamido)acetamido)-2-hydroxy-3,4-dihydro-2H-benzo[e][1,2]oxaborinine-8-carboxylic acid]",32 to 64 mg/L,> 500 µM,30 to 500 µM,1 to 2 µg/mL,< 0.125 µg/mL,< 0.125 µg/mL,1 to 2 µg/mL,–,–,–,–,–,–,–,–,–,–
"CCN1CCN(C(=O)NC(C(=O)N[C@H]2Cc3cccc(C(=O)O)c3OB2O)c2ccc(F)cn2)C(=O)C1=O (stereo partly drawn) [Example 114, (3R)-3-(2-(4-ethyl-2,3-dioxopiperazine-1-carboxamido)-2-(5-fluoropyridin-2-yl)acetamido)-2-hydroxy-3,4-dihydro-2H-benzo[e][1,2]oxaborinine-8-carboxylic acid]",128 to 256 mg/L,> 500 µM,30 to 500 µM,–,–,–,–,> 100 µM,–,–,–,–,–,–,–,–,–
"CCN1CCN(C(=O)NC(C(=O)N[C@H]2Cc3ccc(F)c(C(=O)O)c3OB2O)c2cccs2)C(=O)C1=O (stereo partly drawn) [Example 142, (3R)-3-(2-(4-ethyl-2,3-dioxopiperazine-1-carboxamido)-2-(thiophen-2-yl)acetamido)-7-fluoro-2-hydroxy-3,4-dihydro-2H-benzo[e][1,2]oxaborinine-8-carboxylic acid]",–,> 500 µM,30 to 500 µM,1 to 2 µg/mL,< 0.125 µg/mL,< 0.125 µg/mL,0.25 to 0.5 µg/mL,–,–,–,–,–,–,–,–,–,–
"CCN1CCN(C(=O)N[C@@H](C(=O)N[C@H]2Cc3cccc(C(=O)O)c3OB2O)c2ccc(O)c(F)c2)C(=O)C1=O [Example 156, (R)-3-((R)-2-(4-ethyl-2,3-dioxopiperazine-1-carboxamido)-2-(3-fluoro-4-hydroxyphenyl)acetamido)-2-hydroxy-3,4-dihydro-2H-benzo[e][1,2]oxaborinine-8-carboxylic acid]",–,> 500 µM,–,–,–,–,–,–,32 to 64 µg/mL,32 to 64 µg/mL,2 to 4 µg/mL,2 to 4 µg/mL,32 to 64 µg/mL,< 0.25 µg/mL,32 to 64 µg/mL,32 to 64 µg/mL,< 30 µM
